The values that follow come from ChEMBL document CHEMBL3758171 (Bioorg Med Chem, 2016).

pKi: −log10 of the molar value.

Assay [1] concerns the target Carbonic anhydrase 12 (Homo sapiens, UniProt O43570). The experiment in a line: Inhibition of human recombinant carbonic anhydrase 12 preincubated for 15 mins by stopped flow CO2 hydration assay.
For assay [2], the target named is Carbonic anhydrase 1 (Homo sapiens, UniProt P00915). The experiment in a line: Inhibition of human recombinant carbonic anhydrase 1 preincubated for 15 mins by stopped flow CO2 hydration assay.
The target in assay [3] is Carbonic anhydrase 2 (Homo sapiens, UniProt P00918). Nature of the assay: Inhibition of human recombinant carbonic anhydrase 2 preincubated for 15 mins by stopped flow CO2 hydration assay.
The target in assay [4] is Carbonic anhydrase 9 (Homo sapiens, UniProt Q16790).

Sequence of Carbonic anhydrase 12 (O43570 whole entry): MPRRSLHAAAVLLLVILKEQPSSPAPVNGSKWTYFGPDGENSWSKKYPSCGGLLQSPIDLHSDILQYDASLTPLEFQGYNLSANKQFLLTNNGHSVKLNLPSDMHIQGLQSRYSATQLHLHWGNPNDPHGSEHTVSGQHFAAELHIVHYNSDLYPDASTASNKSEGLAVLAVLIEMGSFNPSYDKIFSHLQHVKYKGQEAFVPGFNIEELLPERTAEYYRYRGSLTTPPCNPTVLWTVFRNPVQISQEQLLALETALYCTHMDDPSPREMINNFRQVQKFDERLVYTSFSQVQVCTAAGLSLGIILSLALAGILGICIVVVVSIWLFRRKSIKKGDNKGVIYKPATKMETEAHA
Sequence of Carbonic anhydrase 1 (P00915 whole entry): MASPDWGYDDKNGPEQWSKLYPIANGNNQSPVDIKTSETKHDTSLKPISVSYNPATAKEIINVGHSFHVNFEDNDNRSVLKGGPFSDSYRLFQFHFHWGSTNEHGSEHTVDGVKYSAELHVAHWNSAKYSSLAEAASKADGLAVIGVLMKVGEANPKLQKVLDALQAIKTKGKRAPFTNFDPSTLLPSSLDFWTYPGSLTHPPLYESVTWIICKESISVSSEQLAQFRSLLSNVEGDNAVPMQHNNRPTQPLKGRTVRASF

The term pKi denotes the negative decadic logarithm of the Ki, by convention in mol/L. Consider `O=C(CN1C(=O)c2ccccc2S1(=O)=O)c1ccc(F)cc1`, for which the pKi in assay [1] is 7.39; in assay [2] it was 5.96; in assay [3], under 5.00; in assay [4], 7.64.

As for `O=C(CN1C(=O)c2ccccc2S1(=O)=O)c1ccc(Cl)cc1Cl`, the pKi in assay [1] is 8.41; in assay [2] it was 5.83; in assay [3], under 5.00; in assay [4], 6.72.

On to `Cc1ccccc1CN1C(=O)c2ccccc2S1(=O)=O`, for which the pKi in assay [1] was 7.80; in assay [2] it was 5.86; in assay [3] it was under 5.00; in assay [4], 6.66.

Regarding `O=C(O)CN1C(=O)c2ccccc2C1=O`, the pKi in assay [1] is 8.37; in assay [2], under 5.00; in assay [3], under 5.00; in assay [4], 6.65.

Take `O=C(O)CN1C(=O)c2ccccc2S1(=O)=O`: the results for the pKi in assay [2] and in assay [3] were 3.96 and 4.11, respectively.

Consider `Cc1cccc(CN2C(=O)c3ccccc3S2(=O)=O)c1`, for which the negative-log Ki (pKi) in assay [1] is 7.59; in assay [3], under 5.00; in assay [4] it was 6.74.

Consider `CC1=CC(=O)N(Cc2ccc(Cl)cc2)S(=O)(=O)O1`, for which the pKi in assay [1] was 8.35; in assay [2] it was under 5.00; in assay [3], under 5.00; in assay [4], 6.62.

In the case of `CC1=CC(=O)N(Cc2ccc([N+](=O)[O-])cc2)S(=O)(=O)O1`, the pKi in assay [1] was 8.37; in assay [2], under 5.00; in assay [3] it was under 5.00; in assay [4], 6.68.

Turning to `CC1=CC(=O)N(CC(=O)c2ccc(-c3ccccc3)cc2)S(=O)(=O)O1`, the pKi in assay [1] was 8.40; in assay [2], under 5.00; in assay [3], under 5.00; in assay [4], 7.59.

For the compound `O=C1c2ccccc2S(=O)(=O)N1Cc1ccc(Br)cc1`, the pKi in assay [1] was 8.37; in assay [2], under 5.00; in assay [3], under 5.00; in assay [4], 7.66.

On to `O=C1c2ccccc2S(=O)(=O)N1Sc1ccccc1[N+](=O)[O-]`, for which the pKi in assay [1] was 8.40; in assay [2], under 5.00; in assay [3], under 5.00; in assay [4], 7.74.

On to `CC1=CC(=O)N(Cc2ccc(F)cc2)S(=O)(=O)O1`, for which the pKi is 8.31 in assay [1], under 5.00 in assay [2], under 5.00 in assay [3] and 6.58 in assay [4].

In the case of `O=C1c2ccccc2S(=O)(=O)N1Cc1ccc(Cl)cc1`, the results for the pKi in assay [1], in assay [3] and in assay [4] were 8.36, under 5.00 and 7.72, respectively.

Turning to `Cc1ccc(CN2C(=O)c3ccccc3S2(=O)=O)cc1`, the negative-log Ki (pKi) in assay [1] was 8.29; in assay [2], under 5.00; in assay [3], under 5.00; in assay [4], 6.63.

Consider `O=C1c2ccccc2S(=O)(=O)N1Cc1ccccc1C(F)(F)F`, for which the pKi in assay [1] was 7.82; in assay [3], under 5.00; in assay [4] it was 6.21.

`COc1cccc(C(=O)CN2C(=O)c3ccccc3S2(=O)=O)c1`: the pKi in assay [1] is 8.22; in assay [3] it was under 5.00; in assay [4] it was 5.80.

Turning to `CC1=CC(OCC(=O)c2ccc(Br)cc2)=NS(=O)(=O)O1`, the pKi was 8.44 in assay [1], under 5.00 in assay [3] and 6.71 in assay [4].

As for `CC1=CC(=O)N(CC(=O)c2ccc([N+](=O)[O-])cc2)S(=O)(=O)O1`, the values for the negative-log Ki (pKi) in assay [1], in assay [3] and in assay [4] were 8.41, 5.76 and 5.61, respectively.

For `O=C1c2ccccc2S(=O)(=O)N1Cc1ccc(F)cc1`, the pKi is 7.39 in assay [1], under 5.00 in assay [3] and 6.27 in assay [4].

`O=C1c2ccccc2S(=O)(=O)N1Cc1cccc(C(F)(F)F)c1`: the pKi in assay [1] is 7.77; in assay [2], under 5.00; in assay [3], under 5.00; in assay [4], 7.72.

In the case of `CC1=CC(=O)N(CC(=O)c2ccc(C#N)cc2)S(=O)(=O)O1`, the figures for the pKi in assay [1], in assay [3] and in assay [4] were 8.39, 6.85 and 7.57, respectively.

On to `O=C1c2ccccc2S(=O)(=O)N1Cc1ccc([N+](=O)[O-])cc1`, for which the values for the negative-log Ki (pKi) in assay [1], in assay [3] and in assay [4] were 7.54, under 5.00 and 5.93, respectively.

Regarding `COc1cccc(C(=O)CN2C(=O)C=C(C)OS2(=O)=O)c1`, the pKi was 8.25 in assay [1], under 5.00 in assay [2] and under 5.00 in assay [3].

In the case of `O=C1c2ccccc2S(=O)(=O)N1Cc1ccc(C(F)(F)F)cc1`, the pKi in assay [1] is 8.33; in assay [3], under 5.00; in assay [4], 7.29.

As to `CC1=CC(OCC(=O)c2ccc(Cl)cc2Cl)=NS(=O)(=O)O1`, the negative-log Ki (pKi) in assay [1] is 8.26; in assay [2], under 5.00; in assay [3], under 5.00; in assay [4], 6.58.

Take `O=C1NCc2ccccc21`: the pKi in assay [1] is 8.39; in assay [2] it was under 5.00; in assay [3] it was under 5.00; in assay [4], 6.76.
